Columns and labels:
[1] = system: Kleidermotte Tineola bisselliella Hum.; test: Moth-proofing test (feeding protection, SNV 195901) on wool treated in the exhaust bath, Example 4; assay type: in vivo; settings: 15 larvae, 14 days, 28°C, 65 % r.h.
Protocol: (§1) Von den zu prüfenden Verbindungen Nr. 101, 102, 201, 203, 205, 301 und 302 werden Stammlösungen durch Auflösung von jeweils 50 mg der Wirksubstanz in 25 ml Aethylenglykolmonoäthyläther bereitet.
(§2) 3 g schwere, gut vorgenetzte Wollgewebstücke werden in eine 30°C warme wässrige Flotte eingebracht, die folgende Bestandteile enthält: • x ppm, bezogen auf das Wollgewicht, der jeweils zu prüfenden Verbindung (eine entsprechende Menge der oben beschriebenen Stammlösung wird der Flotte zugegeben). • 1 X, bezogen auf das Wollgewicht, 80%-ige Essigsäure. • 4 X, bezogen auf das Wollgewicht, Ammoniumsulfat. • 0,5 g/1 Flotte eines Netz- und Dispergiermittels.
(§3) Die Temperatur der Flotte wird innerhalb 20 Minuten auf 98°C gesteigert und 60 Minuten bei dieser Temperatur belassen. Nach dem Abkühlen werden die Muster einzeln mit Wasser gespült und bei Raumtemperatur getrocknet.
(§4) Die mit den zu prüfenden Verbindungen ausgerüsteten trockenen Wollmuster werden der Mottenechtheitsprüfung (Frassschutz gegen die Kleidermotte Tineola bisselliella Hum.) sowie der Echtheitsprüfung gegen Larven des Pelzkäfers (Attagenus piceus Oliv.) und Teppichkäfers (Anthrenus flavipes var. seminiveus) gemäss der Vorschrift des Schweizer Normenverbandes SNV 195901 unterworfen.
(§5) Es werden jeweils Larven von Tineola und Larven von Anthrenus und 6 bis 7 Wochen alte Larven von Attagenus zur Prüfung verwendet.
(§6) Aus dem behandelten Wollflanellmuster werden Stücke gleicher Grösse ausgeschnitten und 14 Tage lang bei konstanter Temperatur (28°C) und konstanter relativer Luftfeuchtigkeit (65 %) dem Angriff (Frass) von je 15 Larven des entsprechenden Schädlings ausgesetzt. Die Beurteilung für alle 3 Schädlinge erfolgt nach dem Gewichtsverlust des Wollmusters.
(§7) .Aus der nachfolgenden Tabelle 1 ist für die geprüften Verbindungen die jeweilige Einsatzkonzentration (in ppm, bezogen auf das Wollgewicht) und der durch den Schädlingsfrass verursachte Gewichtsverlust (in mg) zu entnehmen: […]

[2] = system: Larven des Pelzkäfers (Attagenus piceus Oliv.); test: Fastness test against fur beetle larvae (SNV 195901) on wool treated in the exhaust bath, Example 4; assay type: in vivo; settings: 15 larvae, 14 days, 28°C, 65 % r.h.
Protocol: as §1, §2, §3, §4, §5, §6, §7

[3] = system: Larven des Teppichkäfers (Anthrenus flavipes var. seminiveus); test: Fastness test against carpet beetle larvae (SNV 195901) on wool treated in the exhaust bath, Example 4; assay type: in vivo; settings: 15 larvae, 14 days, 28°C, 65 % r.h.
Protocol: as §1, §2, §3, §4, §5, §6, §7

[4] = system: Kleidermotte Tineola bisselliella Hum.; test: Moth-proofing test (SNV 195901) on wool treated by pad (Foulard) application, Example 5; assay type: in vivo; settings: 15 larvae, 14 days, 28°C, 65 % r.h.
Source text: as §4, §5, §6
(§8) 12,5 ml der jeweiligen, die zu prüfenden Verbindungen Nr. 101, 102, 201, 203, 205, 301 und 302 enthaltenden Stammlösung gemäss Beispiel 4 werden mit Aethylenglykolmonoäthyläther, der 1 g/1 eines Netz- und Dispergiermittels enthält, verdünnt. Die'Verdünnung erfolgt in der Weise, dass in der erhaltenen Foulardflotte die Konzentration der jeweils zu prüfenden Verbindung so eingestellt ist, dass auf dem Wollgewebe nach dem foulardieren x ppm des jeweiligen Wirkstoffes vorhanden sind (siehe Tabelle 2). Jeweils 3 ml der erhaltenen Lösung werden in eine Kristallisierschale gegeben. Darin wird eine geköderte Rondelle aus Wollgewebe mit Hilfe einer Pinzette ca. 3 Sekunden lang benetzt. Die feuchten Rondellen werden dann zwischen 2 Aluminiumfolien foulardiert, und zwar derart, dass die abgequetschten Rondellen je 100 X, bezogen auf ihr Gewicht, an Flotte aufgenommen haben. Die feuchten Rondellen werden an der Luft getrocknet und den gleichen biologischen Prüfungen unterworfen, die in Beispiel 4 beschrieben sind. Die Ergebnisse sind in der nachfolgenden Tabelle 2 zusammengefassst: […]

[5] = system: Larven des Pelzkäfers (Attagenus piceus Oliv.); test: Fastness test against fur beetle larvae (SNV 195901) on wool treated by pad (Foulard) application, Example 5; assay type: in vivo; settings: 15 larvae, 14 days, 28°C, 65 % r.h.
Source text: as §4, §5, §6, §8

[6] = system: Larven des Teppichkäfers (Anthrenus flavipes var. seminiveus); test: Fastness test against carpet beetle larvae (SNV 195901) on wool treated by pad (Foulard) application, Example 5; assay type: in vivo; settings: 15 larvae, 14 days, 28°C, 65 % r.h.
Source text: as §4, §5, §6, §8

[7] = system: die in Beispiel 4 genannten keratinfressenden Schädlinge; test: Protection of wool articles treated in a dry-cleaning liquor, Example 6; assay type: in vivo, Tineola bisselliella, Attagenus piceus, Anthrenus flavipes; settings: 10%-ige solution diluted 1:200 by volume in dry-cleaning solvent; wool spun to ca. 100 % solvent content, dried
Source text: Beispiel 6: Es wird jeweils eine 10%-ige Lösung der Verbindungen Nr. 101, 201, 202 und 301 in Aethylenglykolmonomethyläther hergestellt. Ein Volumenteil dieser Lösung wird mit 200 Volumen- 'teilen eines zur Trockenreinigung geeigneten Lösungsmittels, z.B. einer passenden Benzinfraktion oder Perchloräthylen, verdünnt. Gewünschtenfalls können noch reinigungsfördernde Zusätze beigefügt werden. Wollartikel werden nun wie üblich in diesen Reinigungsflüssigkeiten behandelt und anschliessend auf einen Lösungsmittelgehalt von ca. 100 % des Wollgewichtes abgeschleudert.

[8] = system: die in Beispiel 4 genannten keratinfressenden Schädlinge; test: Protection of wool articles treated by spray application, Example 7; assay type: in vivo, Tineola bisselliella, Attagenus piceus, Anthrenus flavipes; settings: 0,5%-ige solution sprayed, 2 x 15 g/m^2; about 400 ppm active on the material
Source text: Beispiel 7: Es wird jeweils eine 0,5%-ige Lösung der Verbindungen Nr. 101, 201, 202 und 301 in Methylenchlorid, Trichloräthylen oder einer tiefsiedenden Benzinfraktion angesetzt. Wollartikel werden mit Hilfe einer üblichen Sprüheinrichtung mit diesen Lösungen besprüht, so dass 2 x 15 g/m^2 an Wirkstofflösung appliziert werden. Bei einem Ausnützungseffekt des Aerosols von 30 % befinden sich dann etwa 400 ppm der jeweiligen Wirkstoffverbindung auf dem Material.

[9] = Einsatzkonzentration 30 ppm on wool weight
[10] = Einsatzkonzentration 300 ppm on wool weight
[11] = Einsatzkonzentration 30 ppm on wool
[12] = Einsatzkonzentration 250 ppm on wool
[13] = Einsatzkonzentration 7,5 ppm on wool weight
[14] = Einsatzkonzentration 125 ppm on wool weight
[15] = Einsatzkonzentration 7,5 ppm on wool
[16] = Einsatzkonzentration 15 ppm on wool
[17] = Einsatzkonzentration 125 ppm on wool

Compound	Gewichtsverlust [1, 9]	Gewichtsverlust [2, 9]	Gewichtsverlust [3, 10]	Gewichtsverlust [4, 11]	Gewichtsverlust [5, 11]	Gewichtsverlust [6, 12]	Gewichtsverlust [1, 13]	Gewichtsverlust [3, 14]	Gewichtsverlust [4, 15]	Gewichtsverlust [5, 16]	Gewichtsverlust [6, 17]	Schutz gegen keratinfressende Schädlinge [7]	Schutz gegen keratinfressende Schädlinge [8]	Gewichtsverlust [2, 13]	Gewichtsverlust [5, 15]
CC#CC(OC(=O)[C@H]1[C@H](C=C(Cl)Cl)C1(C)C)c1cccc(Oc2ccccc2)c1 (relative stereo) [Verbindung 102, (+)-trans-2,2-Dimethyl-3-(2,2-dichlorvinyl)-cyclopropancarbonsäure-3-phenoxy-a-propin-l-yl-benzylester]	2,6 mg	43,4 mg	51,7 mg	4,4 mg	15,3 mg	27,1 mg	–	–	–	–	–	–	–	–	–
CC1(C)C(C=C(Cl)Cl)C1C(=O)OCc1cccc(Oc2ccccc2)c1 (racemic) [Verbindung 201, (+)-cis-2,2-Dimethyl-3-(2,2-dichlorvinyl)-cyclopropancarbonsäure-3-phenoxybenzylester]	–	4,3 mg	–	–	–	–	1,7 mg	18,9 mg	1,9 mg	3,7 mg	1,2 mg	hervorragend gegen die in Beispiel 4 genannten keratinfressenden Schädlinge geschützt	gegen die in Beispiel 4 genannten keratinfressenden Schädlinge geschützt	–	–
CC1(C)[C@@H](C=C(Cl)Cl)[C@@H]1C(=O)OCc1cccc(Oc2ccccc2)c1 (relative stereo) [Verbindung 203, (+)-trans-2,2-Dimethyl-3-(2,2-dichlorvinyl)-cyclopropancarbonsäure-3-phenoxybenzylester]	–	54,2 mg	–	–	–	–	26,9 mg	68,3 mg	17,4 mg	39,3 mg	28,1 mg	–	–	–	–
CC#CC(OC(=O)C1C(C=C(Cl)Cl)C1(C)C)c1cccc(Oc2ccccc2)c1 (mixture of isomers) [Verbindung 101, (±)-cis-2,2-Dimethyl-3-(2,2-dichlorvinyl)-cyclopropancarbonsäure-3-phenoxy-α-propin-1-yl-benzylester]	1,2 mg	9,0 mg	9,2 mg	1,0 mg	2,0 mg	1,1 mg	–	–	–	–	–	hervorragend gegen die in Beispiel 4 genannten keratinfressenden Schädlinge geschützt	gegen die in Beispiel 4 genannten keratinfressenden Schädlinge geschützt	–	–
CC1(C)C(C=C(Cl)Cl)C1C(=O)OC(C#N)c1ccc(F)c(Oc2ccccc2)c1 (mixture of isomers) [Verbindung 301, (±)-cis-2,2-Dimethyl-3-(2,2-dichlorvinyl)-cyclopropancarbonsäure-3-phenoxy-4-fluor-a-cyanobenzylester]	–	–	–	–	–	–	0 mg	14,9 mg	–	–	0,1 mg	hervorragend gegen die in Beispiel 4 genannten keratinfressenden Schädlinge geschützt	gegen die in Beispiel 4 genannten keratinfressenden Schädlinge geschützt	11,4 mg	0,8 mg
CC1(C)C(C=C(Cl)Cl)C1C(=O)OCc1cccc(Oc2ccccc2)c1 (mixture of isomers) [Verbindung 205, (+)-cis, trans-2,2-Dimethyl-3-(2,2-dichlorvinyl)-cyclopropancarbonsäure-3-phenoxybenzylester]	–	14,9 mg	–	–	–	–	5,8 mg	29,2 mg	5,5 mg	32,5 mg	11,0 mg	–	–	–	–
CC1(C)C(C=C(Cl)Cl)C1C(=O)OC(C#N)c1cccc(Oc2ccccc2)c1 (mixture of isomers) [Verbindung 202, (±)-cis-2,2-Dimethyl-3-(2,2-dichlorvinyl)-cyclopropancarbonsäure-3-phenoxy-a-cyano-benzylester]	–	–	–	–	–	–	–	–	–	–	–	hervorragend gegen die in Beispiel 4 genannten keratinfressenden Schädlinge geschützt	gegen die in Beispiel 4 genannten keratinfressenden Schädlinge geschützt	–	–
CC1(C)[C@@H](C=C(Cl)Cl)[C@@H]1C(=O)OC(C#N)c1ccc(F)c(Oc2ccccc2)c1 (relative stereo) [Verbindung 302, (+)-trans-2,2-Dimethyl-3-(2,2-dichlorvinyl)-cyclopropancarbonsäure-3-phenoxy-4-fluor-a-cyanobenzylester]	–	–	–	–	–	–	0,4 mg	48,0 mg	–	–	16,3 mg	–	–	51,4 mg	9,3 mg
